What all share (type): functional
Assay [1] is filed under the species Cavia porcellus. Put plainly: Concentration required to produce 30% reduction from the initial beat rates in isolated guinea pig right atria.
Assay [2] relates to Rattus norvegicus. Put plainly: Reduction of spontaneous sinus heart rate (HR) when […] in conscious rats; Reduced from -5.28 to -20.0 beats/min.
Assay [3] has as its system Rattus norvegicus. In words: Reduction of spontaneous sinus heart rate (HR) when […] in conscious rats; Reduced from -23.5 to -87.8 beats/min.
In assay [4] the test system is Rattus norvegicus. In words: Reduction of mean blood pressure (MBP) when […] in conscious rats; Reduced from 2.12 to 2.0 mmHg.

Each structure is given as a SMILES string.

In turn, `COc1cc2c(cc1OC)CN(C(=O)CCN1CCC(CCOc3ccc4c(c3)OCO4)CC1)CC2` showed an EC30 in assay [1] of 450 nM. In turn, `COc1cc2c(cc1OC)CN(C(=O)CCN1CCC(COc3ccc4c(c3)OCO4)CC1)CC2` came in with a Heart rate in assay [2] of -20 beats min-1. In assay [1], this compound yielded an EC30 of 470 nM. On to `COc1cc2c(cc1OC)CN(C(=O)CCN1CCCC(CCCOc3ccc4c(c3)OCO4)C1)CC2` (stereo not given), for which the concentration for an effect of 30% (EC30) in assay [1] is 390 nM. In assay [1], `COc1cc2c(cc1OC)CN(C(=O)CCN1CCC(CCCOc3ccc4c(c3)OCO4)CC1)CC2` returned an EC30 of 620 nM. `COc1ccc(CCN(C)CCCN2CCc3cc(OC)c(OC)cc3CC2=O)cc1OC` [ZATEBRADINE] returned an EC30 in assay [1] of 260 nM.

In assay [1], `COc1cc2c(cc1OC)CN(C(=O)C1CCCN(CCCOc3ccc4c(c3)OCO4)C1)CC2` (stereo not given) yielded an EC30 of 370 nM. Same read-out and setting: then `COc1cc2c(cc1OC)CN(C(=O)CCN1CCCC(CCOc3ccc4c(c3)OCO4)C1)CC2` (stereo not given), with 340 nM. With `COc1cc2c(cc1OC)CN(C(=O)CCN1CCC(Oc3ccc4c(c3)OCO4)CC1)CC2`, the EC30 in assay [1] turned out to be 440 nM. In assay [3], this compound gave a Heart rate of -87.8 beats min-1. In assay [4], this compound returned an MBP of 2 mmHg. In the case of `COc1cc2c(cc1OC)CN(C(=O)CCN1CCCC(Oc3ccc4c(c3)OCO4)C1)CC2` (stereo not given), it took 3030 nM to reach the 30% level in assay [1] (EC30). With `COc1cc2c(cc1OC)CN(C(=O)CCCN1CCCC(COc3ccc4c(c3)OCO4)C1)CC2` (stereo not given), in assay [1], the EC30 turned out to be 850 nM.

For the compound `COc1cc2c(cc1OC)CN(C(=O)CN1CCCC(COc3ccc4c(c3)OCO4)C1)CC2` (stereo not given), the EC30 in assay [1] is 1170 nM. Same read-out and setting: in the case of `COc1cc2c(cc1OC)CN(C(=O)CCN1CCCC(COc3ccc4c(c3)OCO4)C1)CC2` (stereo not given) it was 170 nM.

By EC30 is commonly meant the point of the concentration-response curve where the effect stands at 30%. A lower EC30 goes with greater potency.

The record behind these values is ChEMBL document CHEMBL1149239, “Synthesis and pharmacological evaluation of piperidinoalkanoyl-1,2,3,4-tetrahydroisoquinoline derivatives as novel specific bradycardic agents” (2004).
